According to ChEMBL document CHEMBL1201862, “PubChem BioAssay data set” (2004):
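A five-concentration, 48-hour dose response in 96-well plates underlies each endpoint, interpolated linearly between surrounding concentrations. GI50 is the concentration that inhibits growth by half.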 Activity calls are given as the source filed them. Cut-off read from the data, not from the text of the source: active = GI50 up to about 1.1 µM and inactive = higher.

How the values were obtained:
Experiment in all cases: growth of human tumour cells (NCI), 48 h
[1] = test system: OVCAR-3
[2] = test system: UACC-62
[3] = test system: SF-268
[4] = test system: SF-539
[5] = test system: KM12
[6] = test system: DMS-114
[7] = test system: M14
[8] = test system: HCC 2998
[9] = test system: OVCAR-8
[10] = test system: SN12C
[11] = test system: OVCAR-4
[12] = test system: DMS-273
[13] = test system: OVCAR-5
[14] = test system: NCI-H23
[15] = test system: M19-MEL
[16] = test system: SNB-78
[17] = test system: ACHN
[18] = test system: SK-MEL-5
[19] = test system: HCT-15
[20] = test system: U-251
[21] = test system: SR
[22] = test system: XF498
[23] = test system: EKVX
[24] = test system: TK-10
[25] = test system: SK-OV-3
[26] = test system: SW-620
[27] = test system: CAKI-1
[28] = test system: MOLT-4
[29] = test system: Malme-3M
[30] = test system: NCI-H460
[31] = test system: COLO 205
[32] = test system: CCRF-CEM
[33] = test system: IGROV-1
[34] = test system: HL-60
[35] = test system: K562
[36] = test system: HOP-62
[37] = test system: SNB-75
[38] = test system: SK-MEL-2
[39] = test system: A549
[40] = test system: DLD-1
[41] = test system: 786-0
[42] = test system: SK-MEL-28
[43] = test system: RPMI-8226
[44] = test system: NCI-H522
[45] = test system: SNB-19
[46] = test system: KM-20L2
[47] = test system: HCT-116
[48] = test system: HOP-92
[49] = test system: UO-31
[50] = test system: UACC-257
[51] = test system: LXFL 529
[52] = test system: LOX IMVI
[53] = test system: SF-295
[54] = test system: A498
[55] = test system: HT-29
[56] = test system: RXF 393

Cc1ccc(S(=O)(=O)c2c(N)c3nccn3c3nc4ccccc4nc23)cc1
GI50 [1]: > 100 µM (inactive) | GI50 [2]: 20.4 µM (inactive) | GI50 [3]: > 100 µM (inactive) | GI50 [4]: > 100 µM (inactive) | GI50 [5]: > 100 µM (inactive) | GI50 [6]: > 100 µM (inactive) | GI50 [7]: > 100 µM (inactive) | GI50 [8]: > 100 µM (inactive) | GI50 [9]: > 100 µM (inactive) | GI50 [10]: > 100 µM (inactive) | GI50 [11]: > 100 µM (inactive) | GI50 [12]: 81.1 µM (inactive) | GI50 [13]: > 100 µM (inactive) | GI50 [14]: > 100 µM (inactive) | GI50 [15]: > 100 µM (inactive) | GI50 [16]: 53.5 µM (inactive) | GI50 [17]: 79.8 µM (inactive) | GI50 [18]: > 100 µM (inactive) | GI50 [19]: > 100 µM | GI50 [20]: > 100 µM (inactive) | GI50 [21]: > 100 µM (inactive) | GI50 [22]: 41.8 µM (inactive) | GI50 [23]: > 100 µM (inactive) | GI50 [24]: 69.8 µM (inactive) | GI50 [25]: > 100 µM (inactive) | GI50 [26]: > 100 µM (inactive) | GI50 [27]: > 100 µM (inactive) | GI50 [28]: > 100 µM (inactive) | GI50 [29]: > 100 µM (inactive) | GI50 [30]: > 100 µM (inactive) | GI50 [31]: > 100 µM (inactive) | GI50 [32]: > 100 µM (inactive) | GI50 [33]: 13.5 µM (inactive) | GI50 [34]: > 100 µM (inactive) | GI50 [35]: > 100 µM (inactive) | GI50 [36]: 81.7 µM (inactive) | GI50 [37]: 7.85 µM (inactive) | GI50 [38]: > 100 µM (inactive) | GI50 [39]: > 100 µM (inactive) | GI50 [40]: > 100 µM (inactive) | GI50 [41]: 49 µM (inactive) | GI50 [42]: > 100 µM (inactive) | GI50 [43]: > 100 µM (inactive) | GI50 [44]: > 100 µM (inactive) | GI50 [45]: > 100 µM (inactive) | GI50 [46]: > 100 µM (inactive) | GI50 [47]: > 100 µM (inactive) | GI50 [48]: > 100 µM (inactive) | GI50 [49]: > 100 µM (inactive) | GI50 [50]: > 100 µM (inactive) | GI50 [51]: > 100 µM (inactive) | GI50 [52]: > 100 µM (inactive)

C=C(C)C1CC=C(C)[C@](O)(C2(O)C[C@H](C(=C)C)CC=C2C)C1 (some centres not stated)
GI50 [53]: > 100 µM (inactive) | GI50 [2]: > 100 µM (inactive) | GI50 [5]: > 100 µM (inactive) | GI50 [6]: > 100 µM (inactive) | GI50 [7]: > 100 µM (inactive) | GI50 [9]: > 100 µM (inactive) | GI50 [12]: > 100 µM (inactive) | GI50 [13]: > 100 µM (inactive) | GI50 [14]: > 100 µM (inactive) | GI50 [15]: > 100 µM (inactive) | GI50 [16]: > 100 µM (inactive) | GI50 [17]: > 100 µM (inactive) | GI50 [20]: > 100 µM (inactive) | GI50 [21]: > 100 µM (inactive) | GI50 [23]: > 100 µM (inactive) | GI50 [24]: > 100 µM (inactive) | GI50 [25]: > 100 µM (inactive) | GI50 [28]: > 100 µM (inactive) | GI50 [54]: > 100 µM (inactive) | GI50 [30]: > 100 µM (inactive) | GI50 [32]: > 100 µM (inactive) | GI50 [33]: > 100 µM (inactive) | GI50 [34]: > 100 µM (inactive) | GI50 [36]: > 100 µM (inactive) | GI50 [55]: > 100 µM (inactive) | GI50 [39]: > 100 µM (inactive) | GI50 [42]: > 100 µM (inactive) | GI50 [44]: > 100 µM (inactive) | GI50 [45]: > 100 µM (inactive) | GI50 [46]: > 100 µM (inactive) | GI50 [47]: > 100 µM (inactive) | GI50 [48]: > 100 µM (inactive) | GI50 [56]: > 100 µM (inactive) | GI50 [49]: > 100 µM (inactive) | GI50 [50]: > 100 µM (inactive)
